Assay results taken from ChEMBL document CHEMBL1121855, “Potential salicylamide antiplaque agents: in vitro antibacterial activity against Actinomyces viscosus” (J Med Chem, 1981).
Converted amounts (≈) assume the structure as drawn.

Legend:
Actinomyces viscosus [1] = assay: In vitro antibacterial activity against Actinomyces viscosus M-100-2000; assay type: functional
[2] = Dissociation constant is the negative logarithm of the equilibrium coefficient of the neutral and charged forms of the compound; assay type: physicochemical
[3] = Partition coefficient is determined in octanol/buffer solution; assay type: physicochemical
[4] = Distribution coefficient between octanol and aqueous phase at pH7.2; assay type: physicochemical; conditions: pH 7.2
[5] = Observed inhibitory activity against various Actinomycetes strains; conditions: actinomycetaceae
Actinomyces israelii [6] = assay: In vitro antibacterial activity against Actinomycetes israelii 28360; assay type: functional
Actinomyces viscosus [7] = assay: In vitro antibacterial activity against Actinomycetes viscosus T14V; assay type: functional
Actinomyces israelii [8] = assay: In vitro antibacterial activity against Actinomycetes israelii 12836; assay type: functional
Actinomyces israelii [9] = assay: In vitro antibacterial activity against Actinomycetes israelii 10048; assay type: functional
Actinomyces naeslundii [10] = assay: In vitro antibacterial activity against Actinomycetes naeslundii 8115; assay type: functional
Actinomyces naeslundii [11] = assay: In vitro antibacterial activity against Actinomycetes naeslundii 12104; assay type: functional

Row | MIC (Actinomyces viscosus [1]) [mg/L] | pKa [2] | logD [4] | Log 1/MIC [5] | SMILES | other results
1 | > 20 |  |  |  | CCCCCCCCCCCC(=O)c1ccc(O)c(C(=O)Nc2nc3ccccc3s2)c1 | 
2 | 0.1 (≈ 0.287 µM) | 7.35 | 5.88 | 6.54 | CCCCc1ccc(O)c(C(=O)Nc2ccc(Br)cc2)c1 | logP ([3]; octanol/buffer, read-out: logP): 6.09
3 | 95 (≈ 251 µM) |  |  |  | O=C(Nc1nccs1)c1cc(Br)cc(Br)c1O | 
4 | 0.5 (≈ 1.2 µM) |  |  |  | O=C(Nc1ccc([N+](=O)[O-])cc1)c1cc(Br)cc(Br)c1O | 
5 | 1.5 (≈ 4.49 µM) | 7.35 | 5.38 | 5.35 | CCCc1ccc(O)c(C(=O)Nc2ccc(Br)cc2)c1 | logP ([3]; octanol/buffer, read-out: logP): 5.61
6 | 1.7 (≈ 3.97 µM) |  |  |  | O=C(Nc1nc2ccccc2s1)c1cc(Br)cc(Br)c1O | 
7 | 25 (≈ 62.5 µM) |  |  |  | Cc1cc(C)nc(NC(=O)c2cc(Br)cc(Br)c2O)c1 | 
8 | > 20 |  |  |  | Cc1ccc(O)c(C(=O)NCCCCCCNC(=O)c2cc(C)ccc2O)c1 | 
9 | 200 (≈ 499 µM) |  |  |  | Cc1cc(C)nc(NC(=O)c2cc(Br)cc(Br)c2O)n1 | 
10 | 0.5 (≈ 1.4 µM) |  |  |  | CCCCCCc1ccc(O)c(C(=O)NCc2cccc([N+](=O)[O-])c2)c1 | 
11 | > 155 |  |  |  | Cc1cccnc1NC(=O)c1cc(Br)cc(Br)c1O | 
12 | > 5 |  |  |  | CCCCCCCCCCCCCC(=O)c1ccc(O)c(C(=O)Nc2ccc(Br)cc2)c1 | 
13 | > 20 |  |  |  | CCCCCCc1ccc(O)c(C(=O)Nc2nc3ccccc3s2)c1 | 
14 | > 25 |  |  |  | COc1ccc(O)c(C(=O)Nc2ccc(Br)cc2)c1 | 
15 | 12 (≈ 30.7 µM) |  |  |  | O=C(NCC1CCCCC1)c1cc(Br)cc(Br)c1O | 
16 | 0.4 (≈ 0.949 µM) | 5.6 | 5.96 | 6.02 | CCCCCCc1cc(C(=O)Nc2ccc(Br)cc2)c(O)c([N+](=O)[O-])c1 | logP ([3]; octanol/buffer, read-out: logP): 7.56
17 | > 20 |  |  |  | O=C(NCCCCCCNC(=O)c1ccccc1O)c1ccccc1O | 
18 | 1 (≈ 2.52 µM) |  |  |  | CCCCCCCC(=O)c1ccc(O)c(C(=O)Nc2nc3ccccc3s2)c1 | 
19 | 0.5 (≈ 1.2 µM) | 6.1 | 5.88 | 5.92 | CCCCCCCC(=O)c1ccc(O)c(C(=O)Nc2ccc(Br)cc2)c1 | logP ([3]; octanol/buffer, read-out: logP): 7.02
20 | 0.5 (≈ 1.35 µM) | 6.85 | 4.75 | 5.87 | O=C(Nc1ccc(Br)cc1)c1cc(Br)ccc1O [DIBROMSALAN] | logP ([3]; octanol/buffer, read-out: logP): 5.26

Row | SMILES | MIC (Actinomyces viscosus [1]) [mg/L] | pKa [2] | logD [4] | Log 1/MIC [5] | other results
21 | CCCCCCCCCC(=O)c1ccc(O)c(C(=O)Nc2ccc([N+](=O)[O-])cc2)c1 | 0.05 (≈ 0.121 µM) |  |  |  | MIC (Actinomyces israelii [6]): 0.05 mg/L (≈ 0.121 µM); MIC (Actinomyces viscosus [7]): 0.05 mg/L (≈ 0.121 µM); MIC (Actinomyces israelii [8]): 0.05 mg/L (≈ 0.121 µM); MIC (Actinomyces israelii [9]): 0.05 mg/L (≈ 0.121 µM); MIC (Actinomyces naeslundii [10]): 0.05 mg/L (≈ 0.121 µM); MIC (Actinomyces naeslundii [11]): 0.5 mg/L (≈ 1.21 µM)
22 | CCCCCCc1ccc(O)c(C(=O)NCc2ccc(Cl)c(Cl)c2)c1 | 0.5 (≈ 1.31 µM) |  |  |  | MIC (Actinomyces israelii [6]): 1 mg/L (≈ 2.63 µM); MIC (Actinomyces viscosus [7]): 0.5 mg/L (≈ 1.31 µM); MIC (Actinomyces israelii [8]): 1 mg/L (≈ 2.63 µM); MIC (Actinomyces israelii [9]): 0.5 mg/L (≈ 1.31 µM); MIC (Actinomyces naeslundii [10]): 0.5 mg/L (≈ 1.31 µM); MIC (Actinomyces naeslundii [11]): 0.5 mg/L (≈ 1.31 µM)
23 | CCCCCCc1ccc(O)c(C(=O)Nc2cccc(C(F)(F)F)c2)c1 | 0.5 (≈ 1.37 µM) |  |  |  | MIC (Actinomyces israelii [6]): > 5 mg/L; MIC (Actinomyces viscosus [7]): 0.05 mg/L (≈ 0.137 µM); MIC (Actinomyces israelii [8]): 0.5 mg/L (≈ 1.37 µM); MIC (Actinomyces israelii [9]): 0.5 mg/L (≈ 1.37 µM); MIC (Actinomyces naeslundii [10]): 0.1 mg/L (≈ 0.274 µM); MIC (Actinomyces naeslundii [11]): 0.05 mg/L (≈ 0.137 µM)
24 | CCCCCCc1ccc(O)c(C(=O)Nc2ccc(Br)cc2)c1 | 0.01 (≈ 0.0266 µM) | 7.35 | 6.88 | 7.58 | logP ([3]; octanol/buffer, read-out: logP): 7.11; MIC (Actinomyces israelii [6]): 0.1 mg/L (≈ 0.266 µM); MIC (Actinomyces viscosus [7]): 0.1 mg/L (≈ 0.266 µM); MIC (Actinomyces israelii [8]): 0.5 mg/L (≈ 1.33 µM); MIC (Actinomyces israelii [9]): 0.1 mg/L (≈ 0.266 µM); MIC (Actinomyces naeslundii [10]): 0.1 mg/L (≈ 0.266 µM); MIC (Actinomyces naeslundii [11]): 1 mg/L (≈ 2.66 µM)
25 | CCCCCCCCCCCC(=O)c1ccc(O)c(C(=O)Nc2ccc(Br)cc2)c1 | 0.02 (≈ 0.0422 µM) | 6.1 | 7.88 | 7.37 | logP ([3]; octanol/water): 9.02; MIC (Actinomyces israelii [6]): 0.5 mg/L (≈ 1.05 µM); MIC (Actinomyces viscosus [7]): 0.5 mg/L (≈ 1.05 µM); MIC (Actinomyces israelii [8]): > 5 mg/L; MIC (Actinomyces israelii [9]): > 5 mg/L; MIC (Actinomyces naeslundii [10]): 1 mg/L (≈ 2.11 µM); MIC (Actinomyces naeslundii [11]): 0.5 mg/L (≈ 1.05 µM)
26 | Cc1ccc(O)c(C(=O)Nc2ccc(Br)cc2)c1 | 2.5 (≈ 8.17 µM) | 7.35 | 4.38 | 5.09 | logP ([3]; octanol/buffer, read-out: logP): 4.61; MIC (Actinomyces viscosus [7]): 5.2 mg/L (≈ 17 µM)
27 | O=C(Nc1cccc(C(F)(F)F)c1)c1cc(Br)cc(Br)c1O [FLUOROSALAN] | 1 (≈ 2.28 µM) |  |  |  | MIC (Actinomyces israelii [6]): 0.1 mg/L (≈ 0.228 µM); MIC (Actinomyces viscosus [7]): 0.5 mg/L (≈ 1.14 µM); MIC (Actinomyces israelii [8]): 0.5 mg/L (≈ 1.14 µM); MIC (Actinomyces israelii [9]): 0.5 mg/L (≈ 1.14 µM); MIC (Actinomyces naeslundii [10]): 0.5 mg/L (≈ 1.14 µM); MIC (Actinomyces naeslundii [11]): 1 mg/L (≈ 2.28 µM)
28 | O=C(Nc1ccc(Br)cc1)c1cc(Br)cc(Br)c1O [TRIBROMSALAN] | 0.5 (≈ 1.11 µM) | 5.85 | 4.78 | 5.95 | logP ([3]; octanol/buffer, read-out: logP): 6.15; MIC (Actinomyces israelii [6]): 5 mg/L (≈ 11.1 µM); MIC (Actinomyces viscosus [7]): 1 mg/L (≈ 2.22 µM); MIC (Actinomyces israelii [8]): 0.5 mg/L (≈ 1.11 µM); MIC (Actinomyces israelii [9]): 1 mg/L (≈ 2.22 µM); MIC (Actinomyces naeslundii [10]): 1 mg/L (≈ 2.22 µM); MIC (Actinomyces naeslundii [11]): 1 mg/L (≈ 2.22 µM)
